Assays:
[1] = system: lasered (hypertensive) eyes of conscious cynomolgus monkeys; assay: Acute IOP response in lasered (hypertensive) eyes of conscious cynomolgus monkeys; assay type: in vivo, cynomolgus monkey; conditions: for IOP % change / IOP Change mmHg: lasered eye; for IOP lowering efficacy (in words): dosed at 300 μg
Procedure: Acute IOP Response in Lasered (Hypertensive) Eyes of Conscious Cynomolgus Monkeys
Intraocular pressure (IOP) can be determined with an Alcon Pneumatonometer after light corneal anesthesia with 0.1% proparacaine. Eyes are washed with saline after each measurement. After a baseline IOP measurement, test compound is instilled in one 30 μL aliquot to the right eyes only of nine cynomolgus monkeys. Vehicle is instilled in the right eyes of six additional animals. Subsequent IOP measurements are taken at 1, 3, and 6 hours.
The above method was used to determine the IOP lowering efficacy of 8,9-dichloro-2,3,4,4a-tetrahydro-1H,6H-pyrazino[1,2-a]quinoxalin-5-one when dosed at 300 μg.
The same method was used to evaluate the IOP lowering ability of the R enantiomer of the Compound (substantially free of the S enantiomer), dosed at 300 μg.

[2] = target: T1, human serotonin receptor clone 5-HT2A (Homo sapiens, UniProt P28223); assay: In vitro functional response (aequorin luminescence) in CHO-K1 cells expressing 5-HT2A; assay type: cell-based; conditions: for Emax: CHO-K1, relative to the response of α-methyl-5-HT; for EC50: CHO-K1 cells, aequorin, Gα16
T1 construct: expressed in transfected cells; host or cells: CHO-K1
T1 sequence (P28223 whole entry): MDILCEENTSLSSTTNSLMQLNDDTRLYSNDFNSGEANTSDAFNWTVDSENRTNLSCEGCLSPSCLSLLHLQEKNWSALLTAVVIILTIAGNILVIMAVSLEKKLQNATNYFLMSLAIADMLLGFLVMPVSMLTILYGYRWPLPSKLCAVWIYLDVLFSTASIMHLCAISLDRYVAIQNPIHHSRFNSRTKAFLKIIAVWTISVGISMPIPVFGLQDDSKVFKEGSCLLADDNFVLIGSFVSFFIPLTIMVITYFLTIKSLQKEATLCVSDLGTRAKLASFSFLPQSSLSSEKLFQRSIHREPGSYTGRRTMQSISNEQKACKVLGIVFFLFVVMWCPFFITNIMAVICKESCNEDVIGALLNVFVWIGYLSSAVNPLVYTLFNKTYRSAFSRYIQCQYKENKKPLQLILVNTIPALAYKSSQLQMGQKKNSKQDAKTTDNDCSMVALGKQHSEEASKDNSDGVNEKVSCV
Procedure: (§1) In Vitro Functional Response at 5-HT2 Receptors
(§2) Functional response at the 5-HT2 receptor subtypes was determined using CHO-K1 cells stably expressing mitochondrially-targeted bioluminescent aequorin, Gα16, and one of either human serotonin receptor clone 5-HT2A, 5-HT2B, or 5-HT2C. Prior to testing, cells were loaded in suspension with coelenterazine for 4-16 hours and directly injected onto different concentrations of the test compound. Light emitted from the cells was measured 20-30 seconds following receptor activation. A luminometer was used to record luminescence in response to the test compound. The mean response signal at each of 8-11 different concentrations was integrated to provide an estimation of receptor activation, expressed as the EC50 value. The efficacy of the response (Emax) at the 5-HT2A and 5-HT2B receptors is expressed relative to the response of α-methyl-5-HT under the same assay conditions while the efficacy at 5-HT2C is expressed relative to the response of 5-HT.

[3] = target: T2, human serotonin receptor clone 5-HT2B (Homo sapiens, UniProt P41595); assay: In vitro functional response (aequorin luminescence) in CHO-K1 cells expressing 5-HT2B; assay type: cell-based; conditions: for Emax: CHO-K1, relative to the response of α-methyl-5-HT; for EC50: CHO-K1 cells, aequorin, Gα16
T2 construct: expressed in transfected cells; host or cells: CHO-K1
T2 sequence (P41595 whole entry): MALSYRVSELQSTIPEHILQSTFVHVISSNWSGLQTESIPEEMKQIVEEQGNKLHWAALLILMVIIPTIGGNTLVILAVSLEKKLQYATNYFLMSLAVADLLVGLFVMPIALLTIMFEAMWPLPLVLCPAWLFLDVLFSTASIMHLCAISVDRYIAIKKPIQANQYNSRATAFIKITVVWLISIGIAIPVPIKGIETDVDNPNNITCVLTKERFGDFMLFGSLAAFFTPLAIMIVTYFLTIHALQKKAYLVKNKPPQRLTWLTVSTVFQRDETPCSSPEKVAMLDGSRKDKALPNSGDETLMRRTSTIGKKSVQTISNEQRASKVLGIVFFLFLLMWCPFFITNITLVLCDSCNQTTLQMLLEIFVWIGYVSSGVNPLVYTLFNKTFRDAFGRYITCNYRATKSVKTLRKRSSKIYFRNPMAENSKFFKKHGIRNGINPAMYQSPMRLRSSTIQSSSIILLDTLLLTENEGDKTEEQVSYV
Procedure: as §1, §2

[4] = target: T3, human serotonin receptor clone 5-HT2C (Homo sapiens, UniProt P28335); assay: In vitro functional response (aequorin luminescence) in CHO-K1 cells expressing 5-HT2C; assay type: cell-based; conditions: for Emax: CHO-K1, relative to the response of 5-HT; for EC50: CHO-K1 cells, aequorin, Gα16
T3 construct: expressed in transfected cells; host or cells: CHO-K1
T3 sequence (P28335 33-458): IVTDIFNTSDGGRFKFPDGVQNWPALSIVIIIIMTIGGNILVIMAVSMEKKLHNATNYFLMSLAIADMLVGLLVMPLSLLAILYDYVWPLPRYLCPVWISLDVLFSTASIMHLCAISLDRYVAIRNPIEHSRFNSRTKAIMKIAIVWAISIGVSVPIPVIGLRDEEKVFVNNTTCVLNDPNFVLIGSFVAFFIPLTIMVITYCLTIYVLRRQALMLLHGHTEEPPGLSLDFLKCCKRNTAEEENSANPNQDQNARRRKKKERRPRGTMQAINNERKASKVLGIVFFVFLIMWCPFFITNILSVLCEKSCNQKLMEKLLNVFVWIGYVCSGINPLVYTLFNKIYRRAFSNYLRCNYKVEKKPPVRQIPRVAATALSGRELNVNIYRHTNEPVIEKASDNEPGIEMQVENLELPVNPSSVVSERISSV
Procedure: as §1, §2

5-HT2C receptor = target: T4, 5-HT2C receptor (Homo sapiens, UniProt P28335); conditions: R enantiomer versus S enantiomer; cited from earlier work
T4 sequence (P28335 33-458): T3 sequence (P28335 33-458)

[5] = 1 hr after topical dose of 300 μg (one 30 μL aliquot)
[6] = 3 hrs after topical dose of 300 μg (one 30 μL aliquot)
[7] = 6 hrs after topical dose of 300 μg (one 30 μL aliquot)

SMILES | IOP % change [1, 5] [%] | IOP Change mmHg [1, 5] [mmHg] | IOP % change [1, 6] [%] | IOP Change mmHg [1, 6] [mmHg] | IOP % change [1, 7] [%] | IOP Change mmHg [1, 7] [mmHg] | IOP lowering efficacy (in words) [1] | Emax [2] [%] | EC50 [2] [nM] | Emax [3] [%] | EC50 [3] [nM] | Emax [4] [%] | EC50 [4] [nM] | potency relative to the S enantiomer at the 5-HT2C receptor (5-HT2C receptor)
O=C1Nc2cc(Cl)c(Cl)cc2N2CCNCC12 (racemic) [Racemic, 8,9-dichloro-2,3,4,4a-tetrahydro-1H,6H-pyrazino[1,2-a]quinoxalin-5-one] | −5.7 | −2.8 | −21.9 | −9.6 | −29.3 | −12.8 | significant decrease in IOP | 112 | 37.5 | 98 | 76.8 | 105 | 4.2 | –
O=C1Nc2cc(Cl)c(Cl)cc2N2CCNC[C@H]12 [R enantiomer, (R)-8,9-dichloro-2,3,4,4a-tetrahydro-1H,6H-pyrazino[1,2-a]quinoxalin-5-one] | −12.9 | −5.8 | −26.3 | −11.7 | −34.7 | −15.0 | significant decrease in IOP | 108 | 20.5 | 99 | 31.6 | 108 | 2.6 | approximately 40 fold
O=C1Nc2cc(Cl)c(Cl)cc2N2CCNC[C@@H]12 [S enantiomer] | – | – | – | – | – | – | – | 96 | 2260 | 45 | 2540 | 105 | 614 | –

Source: patent US20060211700A1, “(R)-8,9-dichloro-2,3,4,4a-tetrahydro-1H,6H-pyrazino[1,2-a]quinoxalin-5-one for controlling IOP and treating glaucoma” (Alcon, Inc., priority 2005, published 2006)
